Laboratory results from patent US20050147640A1, “Noctuid attractant composition” (priority 2002, published 2005).

Test system: Noctuidae
Assay: Sticky board trap comparison of attractant blends beside cotton crops
Type: in vivo
Source text: Comparisons of a range of attractant blends were made using sticky board traps adjacent to cotton crops on the Darling Downs region of Queensland, Australia. This experimental set up allowed comparison of attractants in the presence of the crop volatiles without confusing factors such as the effect of non-volatile feeding stimulants.
A series of rectangular boards 1.2 metres high×1.5 metres wide were placed approximately 1 metre outside the edge of a cotton field at spacings of 50 metres. The boards were suspended at a height of 1 metre above the ground using star posts. Four 100 mm diameter round holes were made in the centre of the boards and cotton wicks containing experimental attractant mixes were suspended in these holes using a paper clip. The boards were coated on both sides with 500 to 700 grams of polybutene sticker so insects attracted to the experimental volatiles would become trapped on the boards. Impregnated wicks were placed in the traps mid afternoon and traps were checked after 48 hours.

O=CCc1ccccc1 [PAA, Phenylacetaldehyde] was tested, and the “Mean (Moths/board)” value (Table 3, total of all Noctuidae, 3.12 mg of each ingredient per sticky board, traps checked after 48 hours) was 1.00 Moths/board and the “Comparison of moth catch in words” value (Table 3 experiment, sticky traps) was “not significantly attractive”.
